# Source: patent US20250042853A1, “BICYCLIC COMPOUND AND APPLICATION THEREOF” (BETTA PHARMACEUTICALS CO., LTD, priority 2021, published 2025)
# System: 786-O-HIF2α-Luc cells
# Test: Luciferase assay (HIF2α reporter gene cells)
# Type: cell-based
# Settings: 18-20 h, luminescence
# Experimental: The luciferase LUC gene was stably transfected into 786-0 cells (purchased from ATCC) using Lipofectamine 3000 transfection reagent (purchased from Invitrogen) to construct HIF2α reporter gene cells (786-O-HIF2α-Luc cells). The experiment was performed when 786-O-HIF2α-Luc cells were in the logarithmic growth phase, the culture medium (RPMI MEDIUM 1640, purchased from Invitrogen) was discarded, and the cells were rinsed three times with PBS; trypsin (TrypLE, purchased from Invitrogen) was added to digest the cells, and the digestion was terminated with culture medium, 10% fetal bovine serum, 1% penicillin, and streptomycin. The cells were collected by centrifugation, and washed twice with PBS to remove phenol red in the culture medium. The cells were resuspended to an appropriate concentration. The cell density and viability were measured, to ensure that the cells with a viability of at least 90% were used in the assay.
# The compounds at a gradient concentration were transferred into 384 wells using Echo550 (non-contact acoustic pipetting system, purchased from Labcyte), 25 nL/well. The cells were seeded into 384-well plates, with 4500 cells/well and 25 μL of culture medium, and the final concentrations of the compounds were 10000 nM, 3333 nM, 1111 nM, 370 nM, 123 nM, 41.1 nM, 13.7 nM, 4.6 nM, 1.5 nM, and 0.5 nM, respectively. The cells were cultured for 18-20 h under conditions of 37° C. and 5% CO2. Steady-Glo™ luciferase assay system (purchased from Promega) was added to a 384-well plate, 25 μL/well. Luminescence values were detected using Envision. The inhibition rate % was calculated based on the RLU (Record Luminescence) signal value of each well, and then the IC50 values of the corresponding compounds were calculated by fitting using Graphpad 8.0.
# The IC50 data of the exemplary examples are provided in Table 2, where A stands for IC50≤0.1 μM; B stands for 0.1 μM<IC50≤0.5 μM; and C stands for IC50>0.5 μM.
row,IC50,Compound
1,10 nM,"N#Cc1ccc(-n2cc(S(=O)(=O)C(F)(F)F)c3c2CCC(F)(F)[C@H]3O)cc1C(F)F [Example 35, (S)-4-(5,5-difluoro-4-hydroxyl-3-((trifluoromethyl)sulfonyl)-4,5,6,7-tetrahydro-1H-indol-1-yl)-2-(difluoromethyl)benzonitrile]"
2,54 nM,"O=S(=O)(CF)c1cn(-c2ccc(F)c(C(F)F)c2)c2c1[C@H](O)C(F)(F)CC2 [Example 14, (S)-1-(3-(difluoromethyl)-4-fluorophenyl)-5,5-difluoro-3-((fluoromethyl)sulfonyl)-4,5,6,7-tetrahydro-1H-indol-4-ol]"

# System: VEGFA
# Test: VEGFA ELISA assay (IC50)
# Type: cell-based
# Settings: Homo sapiens, 786-0; 786-O cells, 24 h, VEGFA in culture supernatant by ELISA
# Experimental: 786-O cells in the logarithmic growth phase were inoculated into a 96-well plate at a cell concentration of 65,000 cells per ml of culture liquid, 180 μL per well. The compounds were diluted to the corresponding concentrations, and 20 μL of compound solutions of various concentrations were added to the corresponding cell wells, so that the final concentrations of the compounds were 1.5 nM, 4.6 nM, 13.7 nM, 41.2 nM, 123.5 nM, 370.4 nM, 1111.1 nM, 3333.3 nM, and 10000 nM, respectively. After culturing for 24 h, the cell culture supernatant was collected and the VEGFA concentration was determined using an ELISA kit (purchased from Abeam). Finally, the reaction was terminated and the absorbance value of each well was measured at a wavelength of 450 nm using an ELISA reader. The IC50 values were calculated by GraphPadPrism. CellTiter-Glo reagent was used to measure cell viability.
row,IC50,Compound
1,18 nM,"N#Cc1ccc(-n2cc(S(=O)(=O)C(F)(F)F)c3c2CCC(F)(F)[C@H]3O)cc1C(F)F [Example 35, (S)-4-(5,5-difluoro-4-hydroxyl-3-((trifluoromethyl)sulfonyl)-4,5,6,7-tetrahydro-1H-indol-1-yl)-2-(difluoromethyl)benzonitrile]"
2,40 nM,"O=S(=O)(CF)c1cn(-c2ccc(F)c(C(F)F)c2)c2c1[C@H](O)C(F)(F)CC2 [Example 14, (S)-1-(3-(difluoromethyl)-4-fluorophenyl)-5,5-difluoro-3-((fluoromethyl)sulfonyl)-4,5,6,7-tetrahydro-1H-indol-4-ol]"
3,15 nM,"N#Cc1cc(-n2c(F)c(-c3cccs3)c3c2CCC(F)(F)C3O)ccc1F (stereo not shown) [Example 106, 2-fluoro-5-(2,5,5-trifluoro-4-hydroxyl-3-(thien-2-yl)-4,5,6,7-tetrahydro-1H-indol-1-yl)benzonitrile]"
4,3 nM,"N#Cc1ccc(-n2cc(C(F)(F)F)c3c2CCC(F)(F)[C@H]3O)cc1C(F)F [Example 3, (S)-4-(5,5-difluoro-4-hydroxyl-3-(trifluoromethyl)-4,5,6,7-tetrahydro-1H-indol-1-yl)-2-(difluoromethyl)benzonitrile]"
5,108 nM,"N#Cc1ccc(-n2cc(S(=O)(=O)CF)c3c2CCC(F)(F)[C@H]3O)cc1C(F)(F)F [Example 36, (S)-4-(5,5-difluoro-3-((fluoromethyl)sulfonyl)-4-hydroxyl-4,5,6,7-tetrahydro-1H-indol-1-yl)-2-(trifluoromethyl) benzonitrile]"
6,72 nM,"CS(=O)(=O)c1cn(-c2ccc(F)c(Cl)c2)c2c1C(O)C(F)(F)CC2 (stereo not shown) [Example 24, 1-(3-chloro-4-fluorophenyl)-5,5-difluoro-3-(methylsulfonyl)-4,5,6,7-tetrahydro-1H-indol-4-ol]"
7,47 nM,"N#Cc1cc(-n2cc(C(F)(F)C(F)(F)F)c3c2CCC(F)(F)C3O)ccc1F (stereo not shown) [Example 9, 5-(5,5-difluoro-4-hydroxyl-3-(perfluoroethyl)-4,5,6,7-tetrahydro-1H-indol-1-yl)-2-fluorobenzonitrile]"
8,1620 nM,"CCOC(=O)C(F)(F)c1cn(-c2ccc(F)c(C(F)F)c2)c2c1[C@H](O)C(F)(F)CC2 [Example 48, ethyl (S)-2-(1-(3-(difluoromethyl)-4-fluorophenyl)-5,5-difluoro-4-hydroxyl-4,5,6,7-tetrahydro-1H-indol-3-yl)-2,2-difluoroacetate]"
9,140 nM,"N#Cc1ccc(-n2cc(S(=O)(=O)C(F)F)c3c2CCC(F)(F)[C@H]3O)cc1C#N [Example 39, (S)-4-(3-((difluoromethyl)sulfonyl)-5,5-difluoro-4-hydroxyl-4,5,6,7-tetrahydro-1H-indol-1-yl)phthalonitrile]"
10,39 nM,"CS(=O)(=O)c1cn(-c2ccc(F)c(C(F)(F)F)c2)c2c1[C@H](O)C(F)(F)CC2 [Example 20, (S)-5,5-difluoro-1-(4-fluoro-3-(trifluoromethyl)phenyl)-3-(methylsulfonyl)-4,5,6,7-tetrahydro-1H-indol-4-ol]"
11,8 nM,"N#CC(F)S(=O)(=O)c1cn(-c2ccc(F)c(C(F)F)c2)c2c1[C@H](O)C(F)(F)CC2 (stereo partly drawn) [Example 47, 2-(((S)-1-(3-(difluoromethyl)-4-fluorophenyl)-5,5-difluoro-4-hydroxyl-4,5,6,7-tetrahydro-1H-indol-3-yl)sulfonyl)-2-fluoroacetonitrile]"
12,86 nM,"N#Cc1cc(-n2c(F)c(S(=O)(=O)C(F)F)c3c2CCC(F)(F)[C@H]3O)ccc1F [Example 22, (S)-5-(3-((difluoromethyl)sulfonyl)-2,5,5-trifluoroether-4-hydroxyl-4,5,6,7-tetrahydro-1H-indol-1-yl)-2-fluorobenzonitrile]"
13,639 nM,"N#CC1(S(=O)(=O)c2cn(-c3ccc(F)c(C(F)F)c3)c3c2[C@H](O)C(F)(F)CC3)CC1 [Example 58, (S)-1-((1-(3-(difluoromethyl)-4-fluorophenyl)-5,5-difluoro-4-hydroxyl-4,5,6,7-tetrahydro-1H-indol-3-yl)sulfonyl)cyclopropane-1-nitrile]"
14,30 nM,"N#Cc1ccc(-n2cc(S(=O)(=O)C(F)(F)F)c3c2CCC[C@H]3O)cc1C(F)F [Example 65, (R)-2-(difluoromethyl)-4-(4-hydroxyl-3-((trifluoromethyl)sulfonyl)-4,5,6,7-tetrahydro-1H-indol-1-yl)benzonitrile]"
15,537 nM,"CCS(=O)(=O)c1cn(-c2ccc(F)c(C(F)(F)F)c2)c2c1[C@H](O)C(F)(F)CC2 [Example 16, (S)-3-(ethylsulfonyl)-5,5-difluoro-1-(4-fluoro-3-(trifluoromethyl)phenyl)-4,5,6,7-tetrahydro-1H-indol-4-ol]"
16,74 nM,"N#Cc1ccc(-n2cc(S(=O)(=O)C(F)(F)F)c3c2CCC(F)(F)[C@H]3O)cc1C#N [Example 42, (S)-4-(5,5-difluoro-4-hydroxyl-3-((trifluoromethyl)sulfonyl)-4,5,6,7-tetrahydro-1H-indol-1-yl)phthalonitrile]"
17,50 nM,"O=S(=O)(c1cn(-c2ccc(F)c(C(F)F)c2)c2c1[C@H](O)[C@H](F)CC2)C(F)F [Example 63, (4S,5R)-1-(3-(difluoromethyl)-4-fluorophenyl)-3-((difluoromethyl)sulfonyl)-5-fluoro-4,5,6,7-tetrahydro-1H-indol-4-ol]"

# Same assay, conditions: Homo sapiens, 786-0; 786-O cells, 24 h, VEGFA in culture supernatant by ELISA; class symbols
row,IC50,Compound
1,≤ 500 nM,"CS(=O)(=O)c1cn(-c2ccc(Cl)c(C#N)c2)c2c1[C@H](O)C(F)(F)CC2 [Example 27, (S)-2-chloro-5-(5,5-difluoro-4-hydroxyl-3-(methylsulfonyl)-4,5,6,7-tetrahydro-1H-indol-1-yl)benzonitrile]"
2,≤ 500 nM,"NC(=O)c1cn(-c2ccc(F)c(C(F)F)c2)c2c1[C@H](O)C(F)(F)CC2 [Example 62, (S)-1-(3-(difluoromethyl)-4-fluorophenyl)-5,5-difluoro-4-hydroxyl-4,5,6,7-tetrahydro-1H-indole-3-carboxamide]"
3,≤ 500 nM,"N#Cc1cc(-n2cc(C(F)(F)F)c3c2CCC(F)(F)C3O)cc(F)c1F (stereo not shown) [Example 1, 5-(5,5-difluoro-4-hydroxyl-3-(trifluoromethyl)-4,5,6,7-tetrahydro-1H-indol-1-yl)-2,3-difluorobenzonitrile]"
4,≤ 500 nM,"N#Cc1cc(-n2cc(S(=O)(=O)C(F)(F)F)c3c2CCC(F)(F)[C@H]3O)ccc1Cl [Example 40, (S)-2-chloro-5-(5,5-difluoro-4-hydroxyl-3-((trifluoromethyl)sulfonyl)-4,5,6,7-tetrahydro-1H-indol-1-yl)benzonitrile]"
5,500 to 1500 nM,"N#Cc1cc(-n2cc(C(F)(F)C(N)=O)c3c2CCC(F)(F)C3O)ccc1F (stereo not shown) [Example 15, 2-(1-(3-cyano-4-fluorophenyl)-5,5-difluoro-4-hydroxyl-4,5,6,7-tetrahydro-1H-indol-3-yl)-2,2-difluoroacetamide]"
6,500 to 1500 nM,"N#CCS(=O)(=O)c1cn(-c2ccc(F)c(C(F)F)c2)c2c1[C@H](O)C(F)(F)CC2 [Example 19, (S)-2-((1-(3-(difluoromethyl)-4-fluorophenyl)-5,5-difluoro-4-hydroxyl-4,5,6,7-tetrahydro-1H-indol-3-yl)sulfonyl)acetonitrile]"
7,≤ 500 nM,"N#Cc1cc(-n2cc(C(F)(F)C#N)c3c2CCC(F)(F)C3O)ccc1F (stereo not shown) [Example 17, 5-(3-(cyanodifluoromethyl)-5,5-difluoro-4-hydroxyl-4,5,6,7-tetrahydro-1H-indol-1-yl)-2-fluorobenzonitrile]"
8,≤ 500 nM,"N#Cc1ccc(-n2cc(S(=O)(=O)CF)c3c2CCC(F)(F)[C@H]3O)cc1C(F)F [Example 44, (S)-4-(5,5-difluoro-3-((fluoromethyl)sulfonyl)-4-hydroxyl-4,5,6,7-tetrahydro-1H-indol-1-yl)-2-(difluoromethyl) benzonitrile]"
9,500 to 1500 nM,"N#CCS(=O)(=O)c1cn(-c2ccc(F)c(C(F)(F)F)c2)c2c1[C@H](O)C(F)(F)CC2 [Example 13, (S)-2-((5,5-difluoro-1-(4-fluoro-3-(trifluoromethyl)phenyl)-4-hydroxyl-4,5,6,7-tetrahydro-1H-indol-3-yl)sulfonyl)acetonitrile]"
